Assays:
[1] = tested on: platelets from MEG-01 cells; assay: Activation and function of platelets produced by treated MEG-01 cultures (flow cytometry, clot SEM); type: cell-based, human; settings: for function of platelets obtained in culture: platelets released from treated MEG-01 cells
Method: Platelets were also separated from the megakaryocytic cells, by differential centrifugation (Zunino et al., 2001), considering the big size difference between these cells (1-5 μm for platelets and 35-150 μm for megakaryocytic cell line MEG-01) and analyzed separately. Suspension cells were centrifuged first at 100 g to 150 g for 15 minutes, and then the platelets-rich supernatant was kept and centrifuged again at 800 g for 15 minutes. The platelets pellet was resuspended in the appropriate buffer (Tyrode's buffer, pH 7.4), for analysis. For impeding artefactual aggregation of platelets in the control, EDTA and RGDS or RGD were added in the cell suspension from the beginning of the centrifugations. Therefore the control was the inactivated platelets. Special caution was used in order to avoid as much as possible artefactual activation of the control, therefore centrifugations were done at room temperature, no unnecessary washing, no vortexing, gentle removal of supernatants.
Monoclonal antibody PAC-1 recognizes an epitope on the glycoprotein αIIbβ3 of activated platelets. PAC-1 binds only to the activated platelets, and so is very specific. PAC-1 will not bind EDTA and RGD or RGDS treated platelets (Shattil et al., 1987; Shattil et al., 1985; Shattil and Leavitt, 2001).
10 mg/ml RGD or RGDS and 100 mM EDTA were used for negative control (inactivated) on resting platelets.
PAC-1-FITC was purchased from Becton Dickinson Immunocytometry Systems, San Jose, Calif., USA. 20 μl PAC-1-FITC were used for 5 μl fresh platelets suspension, in Tyrode's buffer with CaCl2, as recommended for whole blood by the provider. Different agonists were used, like 1 μg/ml TRAP, 100 nM PMA, as final concentrations (Chen et al., 2004). Activation time was 10-15 minutes.
BD Biosciences protocol for staining was used, with incubation for 30 minutes, in dark, at room temperature.
CD62P is a monoclonal antibody that recognizes an epitope on P-Selectin. P-Selectin is exposed as response to agonist and is a specific sign of platelet activation. 20 μl CD62P-FITC were used for 5 μl fresh platelets suspension, in Tyrode's buffer with CaCl2. Different agonists were used, like 1 μg/ml TRAP, 100 nM PMA or 20 μM ADP as final concentrations. Activation time was 10 minutes. The staining volume was chosen by titration, small volumes giving better staining. Incubation was done in dark at room temperature for 30 minutes, as recommended by BD Biosciences. These assays were done on fresh platelets.
Human fibrinogen was conjugated with Alexa Fluor 488 fluorochrome (F-13191, from Molecular Probes, OR, USA) following recommended Molecular Probes procedure, with the modification that instead the column step, a dialysis step was chosen, in order to obtain a better attachment of dye molecules to fibrinogen. Final concentration of fibrinogen conjugated Alexa Fluor 488 was determined spectrophotometrically. For platelet activation, different agonists were used, like 1 μg/ml TRAP, 100 nM PMA or 20 μM ADP as final concentrations. Activation time was 10-15 minutes. 300 nM labeled fibrinogen was incubated as a final concentration with platelets suspension for 30 minutes, in dark, at room temperature. Fresh platelets were used.
Platelets expose PS when activated and undergo shape change. They will stain positive for AnnexinV (a marker of PS exposure) and will move up on the SSC, FSC as a result of the shape change. For this assay, AnnexinV-FITC from BDBiosciences was used, as recommended by the manufacturer with the specification that the reaction volumes were decreased. Incubation was done in dark, at room temperature for 30 minutes, after activation for 10 minutes of platelets with agonist (like 1 μg/ml TRAP, 100 nM PMA or 20 μM ADP as final concentrations).
Cell preparation and pictures were done at the Microscopy Core Facility Cleveland Clinic. Cells were grown for 4 days with DMAT 10 μM and then collected by differential centrifugation. […]

MEG-01 cells = assay: Anchorage independence assay in soft agar; type: cell-based, human; settings: 25 μM
Method: Anchorage independence of growth in soft agar assay is an assay for detecting malignant transformation of cells. Anchorage independence is given by defects in the cellular adhesion pathways. Anchorage independence is strongly connected with tumorogenicity and invasiveness. Malignant cells form colonies when grown on soft agar. Normal cells cannot grow on soft agar. Agarose (V3121 from Promega, with melting point at 87-89° C. and gelling point at 36-39° C.) was mixed with MEG-01 growth media RPMI1640 1× with 10% FBS and supplements. A bottom layer of 0.5% makes a firm base, then a top layer of 0.3% agarose with media and over the agarose a layer of growth media was added. Cells were grown in 12 wells dishes at 37° C., 5% CO2, 90% humidity in a VWR incubator. […] This modified image was then transformed into a default threshold image and then colonies were gated and measured.
Referring to FIGS. 2-4, anchorage independence assay in soft agar ([…] and 0.3% top layer agar, with complete MEG-01 cells, growth media) is illustrated. […] The area of each colony was measured using the software NIH Image version 1.63. First the background was subtracted from a gray binary image, then default threshold was applied and then colonies were measured by appropriate gating. 85 colonies from 30 images were measured. […]

[2] = platelets from 10 μM treatment, agonist TRAP

| SMILES | platelet shape change ([1]; agonists: human thrombin, TRAP, ADP, PMA) | clot formation by platelets ([1]; platelets from 10 μM treatment, activated with 0.5 U/ml thrombin) | P-Selectin exposure of activated platelets [1, 2] | PAC-1 staining of activated platelets [1, 2] | fibrinogen binding of activated platelets [1, 2] | function of platelets obtained in culture [1] | colony sizes versus Control untreated (MEG-01 cells; 85 colonies from 30 images, paired t-test p<0.0001) | colony formation in soft agar (MEG-01 cells; observed after one week) |
| --- | --- | --- | --- | --- | --- | --- | --- | --- |
| CN(C)c1nc2c(Br)c(Br)c(Br)c(Br)c2[nH]1 [DMAT, 2-dimethylamino-4,5,6,7-tetrabromo-1H-benzimidazole] | capable of undergoing shape change in response to agonists | form a fibrin clot | expose P-Selectin | stain positive for PAC-1 | bind fibrinogen | functional | extremely significant | do not form colonies at all |
| Brc1c(Br)c(Br)c2[nH]nnc2c1Br [TBB, 4,5,6,7-tetrabromobenzotriazole] | – | – | – | – | – | functional | – | – |

— patent publication US20100048657A1, “CONTROL OF MALIGNANT CELLS PROLIFERATION THROUGH THE INHIBITION OF CASEIN KINASE 2” (CLEVELAND STATE UNIVERSITY, priority 2006, published 2010)
